Measurements as given in patent US4487770A, “Treatment of diseases of the liver, kidney, colon and rectum” (Nippon Shinyaku Co., Ltd., priority 1981, dated 1984).
Like-named read-outs stand apart in the source and are kept apart here.

Key:
solubility in water = format: physicochemical
ddY strain mice = experiment: Acute toxicity test in mice; format: in vivo; conditions: mice and rats
Source text: (§1) The LD50 values of compound I in ddY strain mice (6 weeks of age) and in Sprague-Dawley strain rats (7 weeks of age) are given in Table 4.

[1] = Acute toxicity test in mice; format: in vivo; conditions: mouse, in vivo, read-out: LD50 (95% fiducial limits)
Source text: as §1

intestinal bacteria = experiment: action on intestinal bacteria, standard test by Japan Antibiotic Association
Source text: As a mechanism for the resulting colitis by administration of APS, the physico-chemical properties of APS must be involved. […] Therefore, there is no contribution of antibacterial activity in the effect of compound I against colitis. In view of the above, it is clear that the effect of the compound I against colitis is due to the direct protection of large intestinal mucosal cells by compound I.

erythrocytic membrane = experiment: Enhancement of resistance of erythrocytic membrane (hypoosmotic hemolysis); format: cell-based, rat (Sprague-Dawley strain); conditions: for inhibition at 770 µM / hemolysis at 770 µM: Rattus norvegicus, Erythrocyte, 0.5 h; for inhibition at 770 µM: read-out: Percent Inhibition Ratio (hemolysis); for hemolysis at 770 µM: average of five ± S.E., p < 0.05
Procedure: Enhancement of resistance of erythrocytic membrane
Sprague-Dawley strain rats were treated with heparine and blood samples were obtained therefrom. The blood was centrifuged at 3000 rpm for ten minutes to remove blood plasma and then washed with 10 mM phosphate buffer-physiological saline solution (pH 7) to wash erythrocyte. To each volume of blood required to obtain the erythrocyte, 19 volumes of hypoosmotic solution (containing 10 mM phosphate buffer) was added and an erythrocyte suspension (5% erythrocyte suspension) was prepared. With reference to hemolysis, the absorbancy (O.D.) at 540 nm using distilled water as the hypoosmotic solution so that completely hemolyzed was defined as "100% hemolysis".
An erythrocyte suspension with 0.4%/0.45% hypoosmotic saline solution was incubated at 37° C. for 30 minutes, centrifuged at 3000 rpm for 10 minutes, and the percent hemolysis was calculated from the O.D. of the supernatant liquid.

[2] = Acute toxicity test in rats; conditions: rat, in vivo, read-out: LD50 (95% fiducial limits)
Source text: as §1

[3] = tested on: hepatic and renal disorders induced by carbon tetrachloride in rats; experiment: Effect on hepatic and renal disorders induced by administration of carbon tetrachloride; format: in vivo, rat (Sprague-Dawley strain); conditions: after CCl4; for Body Weight: average ± S.E., n=10; for Liver Wt.: saline 10.5 ± 1.9; for BUN: saline 56.6 ± 10.6; for GPT: saline 2206 ± 298; for LDH: saline 22425 ± 9211
Procedure: Effect on hepatic and renal disorders induced by administration of carbon tetrachloride
Five groups of male rats of Sprague-Dawley strain (body weight: 200 grams) were used (ten rats per group). All of these rats were given 4 ml/kg of 50% carbon tetrachloride (used with olive oil) by oral route. After 24 hours, the rats were killed by decapitation, and blood was taken and the liver was isolated therefrom. Previously, the rats were fasted for 18 hours before taking blood therefrom. The blood was subjected to quantitative determination of GOT, GPT, LDH and BUN and the weights of isolated livers were measured.
Compound I was given to the rats of four groups, two to six hours after the administration of carbon tetrachloride (in other words, at the time when hepatic and renal disorders caused by carbon tetrachloride had already appeared) at the dose of 5, 10, 25 or 50 mg/kg by oral route. Physiological saline in an amount of 1 ml/kg/day to the rats of the fifth group. Rats of a sixth group that received no carbon tetrachloride, served as a control, and were also autospied, as above.

[4] = tested on: guinea pigs having colitis caused by amylopectine sulfate; experiment: Effect on colitis induced by administration of amylopectine sulfate (APS); format: in vivo, guinea pig (Hartley strain); conditions: 2 weeks; for Symptom: Colitis Incidence: saline group 100%; for Symptom: Area of Ulcer: saline group 120 ± 24
Procedure: Effect on colitis induced by administration of amylopectine sulfate (according to the method reported in J. Gastroenterology, 67, 473-483, 1974 by Marcus, R and Watt)
Sixty male guinea pigs of Hartley strain (body weight: 200 grams) were used. Among them, fifty guinea pigs were given tap water containing 1% amylopectine sulfate ("APS") as drinking water and were bred for four weeks. (APS contains about 15% sulfur.)
The animals in these five groups were administered 1 ml/kg/day of physiological saline solution and 5, 10, 25 and 50 mg/kg/day of compound I for two weeks by oral route. The other ten guinea pigs were untreated controls and were given untreated tap water as drinking water and were bred for four weeks under the same circumstances as those of the experimental groups.
After two weeks, the animals were killed by overinhalation of ether, the large intestines were removed and the degree of colitis was determined by observing the incidence of ulcers and the area of ulcers with a stereoscopic microscope (×10). The results are given in Table 1, and the changes in body weight during the administration of the compound I is given in the drawing.

Nc1nc(N)nc(-c2cc(Cl)ccc2Cl)n1.O=C(O)/C=C\C(=O)O [Compound I, 2,4-diamino-6-(2', 5'-dichlorophenyl)-s-triazine maleate]
solubility at 0.5 h (solubility in water; saturated solution in water): 770 µM
solubility in water (in words) (solubility in water; water): hardly soluble in water
safety (LD50 compared with effective dose, in words) (ddY strain mice): highly safe
LD50 ([1]; ip, mice female, intraperitoneal): 1010 mg/kg
LD50 ([1]; ip, mice male, intraperitoneal): 775 mg/kg
LD50 ([1]; po, mice female, oral): 5700 mg/kg
LD50 ([1]; po, mice male, oral): 6040 mg/kg
LD50 ([1]; sc, mice female, subcutaneous): 3220 mg/kg
LD50 ([1]; sc, mice male, subcutaneous): 2840 mg/kg
action on intestinal bacteria (intestinal bacteria): does not exhibit any action on intestinal bacteria
inhibition of hemolysis (in words) (erythrocytic membrane; 0.77 mM, 0.4 and 0.45% saline): shows inhibition of hemolysis
protective action to erythrocyte membranes (in words) (erythrocytic membrane; 0.77 mM, 0.4 and 0.45% saline): exhibits protective action to erythrocyte membranes
inhibition at 770 µM (erythrocytic membrane; 0.77 mM, 0.4% saline solution): 35.5%
inhibition at 770 µM (erythrocytic membrane; 0.77 mM, 0.45% saline solution): 62.2%
hemolysis at 770 µM (erythrocytic membrane; read-out: Percent Hemolysis Ratio, 0.77 mM, 0.4% saline solution, control 70.8 ± 0.6): 45.7 ± 1.8%
hemolysis at 770 µM (erythrocytic membrane; read-out: Percent Hemolysis Ratio, 0.77 mM, 0.45% saline solution, control 27.5 ± 2.1): 10.4 ± 1.1%
LD50 ([2]; ip, rats female, intraperitoneal): 789 mg/kg
LD50 ([2]; ip, rats male, intraperitoneal): 802 mg/kg
LD50 ([2]; po, rats female, oral): 2920 mg/kg
LD50 ([2]; po, rats male, oral): 2900 mg/kg
LD50 ([2]; sc, rats female, subcutaneous): 1520 mg/kg
LD50 ([2]; sc, rats male, subcutaneous): 1600 mg/kg
Body Weight ([3]; 5 mg/kg oral): 198.6 ± 0.5 g
Liver Wt. ([3]; 5 mg/kg oral): 9.6 ± 2.2 g
BUN ([3]; 5 mg/kg oral): 42.0 ± 9.8 mg/dL
GPT ([3]; 5 mg/kg oral): 1920 ± 306 Karmen Unit
LDH ([3]; 5 mg/kg oral): 16341 ± 9009 Wroblewski Unit
GOT ([3]; 5 mg/kg oral, saline printed 3,91 ± 361): 2215 ± 250 Karmen Unit
Body Weight ([3]; 10 mg/kg oral): 199.1 ± 0.7 g
GOT ([3]; 10 mg/kg oral, p < 0.05 vs saline): 1822 ± 249 Karmen Unit
Liver Wt. ([3]; 10 mg/kg oral): 9.5 ± 2.5 g
BUN ([3]; 10 mg/kg oral): 34.6 ± 7.2 mg/dL
GPT ([3]; 10 mg/kg oral): 1566 ± 354 Karmen Unit
LDH ([3]; 10 mg/kg oral): 12209 ± 6214 Wroblewski Unit
Body Weight ([3]; 25 mg/kg oral): 200.6 ± 0.6 g
Liver Wt. ([3]; 25 mg/kg oral): 8.3 ± 1.5 g
BUN ([3]; 25 mg/kg oral): 31.4 ± 8.8 mg/dL
GPT ([3]; 25 mg/kg oral, p < 0.05): 1012 ± 261 Karmen Unit
LDH ([3]; 25 mg/kg oral): 8054 ± 3666 Wroblewski Unit
Body Weight ([3]; 50 mg/kg oral): 198.6 ± 0.8 g
GOT ([3]; 50 mg/kg oral, p < 0.05 vs saline): 1339 ± 211 Karmen Unit
Liver Wt. ([3]; 50 mg/kg oral): 7.4 ± 2.0 g
BUN ([3]; 50 mg/kg oral, p < 0.05): 29.7 ± 3.5 mg/dL
GPT ([3]; 50 mg/kg oral, p < 0.05): 805 ± 134 Karmen Unit
LDH ([3]; 50 mg/kg oral, p < 0.05): 5003 ± 1642 Wroblewski Unit
effect on increase of BUN (in words) ([3]; oral): inhibited the increase of BUN
effect on liver weight, GOT, GPT and LDH (in words) ([3]; oral): depressed the increase of liver weight and the increase in GOT, GPT, and LDH
Average Intake of APS, after administration of Compound I ([4]; 5 mg/kg/day oral): 0.91 g/kg/2w
Increase in Body Weight (2-4 wks) ([4]; 5 mg/kg/day oral, saline group 2 ± 10, control 110 ± 11): 11 ± 12 g
Symptom: Colitis Incidence ([4]; 5 mg/kg/day oral): 90%
Symptom: Area of Ulcer ([4]; 5 mg/kg/day oral): 65 ± 20 mm^2
Average Intake of APS, after administration of Compound I ([4]; 10 mg/kg/day oral): 1.12 g/kg/2w
Increase in Body Weight (2-4 wks) ([4]; 10 mg/kg/day oral, saline group 2 ± 10, control 110 ± 11): 26 ± 15 g
Symptom: Colitis Incidence ([4]; 10 mg/kg/day oral): 80%
Symptom: Area of Ulcer ([4]; 10 mg/kg/day oral): 50 ± 24 mm^2
Average Intake of APS, after administration of Compound I ([4]; 25 mg/kg/day oral): 1.26 g/kg/2w
Increase in Body Weight (2-4 wks) ([4]; 25 mg/kg/day oral, saline group 2 ± 10, p < 0.05): 36 ± 13 g
Symptom: Colitis Incidence ([4]; 25 mg/kg/day oral): 60%
Symptom: Area of Ulcer ([4]; 25 mg/kg/day oral, p < 0.05): 43 ± 15 mm^2
Average Intake of APS, after administration of Compound I ([4]; 50 mg/kg/day oral): 1.24 g/kg/2w
Increase in Body Weight (2-4 wks) ([4]; 50 mg/kg/day oral, saline group 2 ± 10, p < 0.05): 54 ± 10 g
Symptom: Colitis Incidence ([4]; 50 mg/kg/day oral): 60%
Symptom: Area of Ulcer ([4]; 50 mg/kg/day oral, p < 0.05): 34 ± 12 mm^2
effect on body weight of afflicted animals (in words, drawing) ([4]; oral): greatly increases the body weight of the afflicted animals
effect on colitis (in words) ([4]; oral): improvement in the colitis followed by increase in body weight was observed
intake of APS (in words) ([4]; oral): the intake of APS did not decrease, but rather increased
